In patent US9187506B2 (Bristol-Meyers Squibb Company, priority 2014, dated 2015):
Where two headings read alike, the source gives them in different places.

How the values were obtained:
hERG channels = target: T1, hERG channels (Homo sapiens, UniProt Q12809); assay: hERG electrophysiology assay (patch clamp, HEK 293 cells); type: cell-based; details: HEK 293 cells stably expressing hERG, patch clamp tail current
T1 construct: expressed in transfected cells
Protocol: The experimental compounds were assessed for hERG activity on HEK 293 cells stably expressing hERG channels using patch clamp technique. Coverslips plated with hERG expressing cells were placed in the experimental chamber and were perfused with a solution composed of (in mM): 140 NaCl, 4 KCl, 1.8 CaCl2, 1 MgCl2, 10 Glucose, 10 HEPES (pH 7.4, NaOH) at room temperature. Borosilicate patch pipettes had tip resistances of 2-4 Mohms when filled with an internal solution containing 130 KCl, 1 MgCl2, 1 CaCl2, 10 EGTA, 10 HEPES, 5 ATP-K2 (pH 7.2, KOH). The cells were clamped at −80 mV in whole cell configuration using an Axopatch 200B (Axon instruments, Union City, Calif.) patch clamp amplifier controlled by pClamp (Axon instruments) software. Upon formation of a gigaseal, the following voltage protocol was repeatedly (0.05 Hz) applied to record tail currents: depolarization step from −80 mV to +20 mV for 2 seconds followed by a hyperpolarization step to −65 mV (3 seconds) to elicit tail currents and then, back to the holding potential. […] First, tail currents were recorded in presence of extracellular solution alone (control) and subsequently, in extracellular solution containing increasing compound concentrations. […] The percentage inhibition at each concentration was calculated as reduction in peak tail current with respect to the peak tail current recorded in the presence of control solution. […]

[1] = Drug levels in plasma and brain after mouse forced swim test; type: in vivo; details: iv, mice, 1 mg/Kg i.v., at the end of FST
Protocol: Forced Swim Test (FST) is an animal model used to assess antidepressant compounds in preclinical studies. The FST was performed similar to the method of Porsolt et al. with modifications (Porsolt R D, Bertin A, Jalfre M. Behavioral despair in mice: a primary screening test for antidepressants. Arch Int Pharmacodyn Thér 1977; 229:327-36). In this paradigm, mice are forced to swim in an inescapable cylinder filled with water. Under these conditions, mice will initially try to escape and eventually develop immobility behavior; this behavior is interpreted as a passive stress-coping strategy or depression-like behavior. Swim tanks were positioned inside a box made of plastic. Each tank was separated from each other by opaque plastic sheets to the height of cylinders. Three mice were subjected to test at a time. Swim sessions were conducted for 6 min by placing mice in individual glass cylinders (46 cm height×20 cm diameter) containing water (20-cm deep, maintained at 24-25° C.). […] The duration of immobility was evaluated during the total 6 min of the test and expressed as duration (sec) of immobility. […] All testing sessions were recorded with a video camera (Sony Handicam, Model: DCR-HC38E; PAL) and scoring was done using the Forced Swim Scan, Version 2.0 software (Clever Systems Inc., Reston, Va., USA; see Hayashi E, Shimamura M, Kuratani K, Kinoshita M, Hara H. Automated experimental system capturing three behavioral components during murine forced swim test. Life Sci. 2011 Feb. 28; 88(9-10):411-7 and Yuan P, Tragon T, Xia M, Leclair C A, Skoumbourdis A P, Zheng W, Thomas C J, Huang R, Austin C P, Chen G, Guitart X. Phosphodiesterase 4 inhibitors enhance sexual pleasure-seeking activity in rodents. […] For NCE testing: Test compound was administered in mice 15 min before swim session by i.v. route and immobility time was recorded for next 6 min. […] The NR2B receptor occupancy was determined as reported above and was determined to be 73%. […] The NR2B receptor occupancy was determined to be 79%.

[2] = Drug levels in blood plasma and brain tissue by mass spectroscopy (ex vivo occupancy study); details: male, CD-1, mouse, iv, mice, 3 mg/Kg i.v., 15 minutes post-dosing
Protocol: (§1) 7-9 weeks old male CD-1 mice were dosed intravenously in a vehicle consisting of 10% dimethylacetamide, 40% PEG-400, 30% hydroxypropyl betacyclodextrin, and 30% water with experimental compounds and the forebrains were harvested 15 minutes post-dosing by decapitation. The brain samples were immediately snap-frozen and stored at −80° C. On the following day, the dosed brain samples were thawed on ice for 15-20 minutes followed by homogenization using Polytron for 10 seconds in cold homogenization buffer composed of 50 mM KH2PO4 (pH adjusted to 7.4 with KOH), 1 mM EDTA, 0.005% Triton X 100 and protease inhibitor cocktail (Sigma Aldrich). The crude homogenates were further homogenized using a Dounce homogenizer and the homogenized membrane aliquots from all animals were flash-frozen and stored at −80° C. until further use. The whole homogenization process was performed on ice.
(§2) [formula] […] Drug levels were determined by mass spectroscopy in the usual manner. Drug levels in the blood plasma were 1106 nM in at this dose, and drug levels in the homogonized brain tissue were 1984 nM. […] Drug levels in the blood plasma were 1800 nM in at this dose, and drug levels in the homogonized brain tissue were 2200 nM. […] Drug levels in the blood plasma were 570 nM at this dose, and drug levels in the homogonized brain tissue were 900 nM.

NR2B-subtype receptors = target: T2, NR2B-subtype receptors (Mus musculus, UniProt P35438+Q01097); assay: Ex vivo occupancy assay; type: in vivo; details: iv; for receptor occupancy at 3 mg/kg: CD-1 mice, 3 mg/Kg i.v., forebrain harvested 15 minutes post-dosing; for receptor occupancy at 1 mg/kg: mice, 1 mg/Kg i.v., after forced swim test
T2 construct: from tissue; host or cells: forebrain membrane homogenate of dosed CD-1 mice
T2 sequence (Q01097 27-1482, other chains not shown): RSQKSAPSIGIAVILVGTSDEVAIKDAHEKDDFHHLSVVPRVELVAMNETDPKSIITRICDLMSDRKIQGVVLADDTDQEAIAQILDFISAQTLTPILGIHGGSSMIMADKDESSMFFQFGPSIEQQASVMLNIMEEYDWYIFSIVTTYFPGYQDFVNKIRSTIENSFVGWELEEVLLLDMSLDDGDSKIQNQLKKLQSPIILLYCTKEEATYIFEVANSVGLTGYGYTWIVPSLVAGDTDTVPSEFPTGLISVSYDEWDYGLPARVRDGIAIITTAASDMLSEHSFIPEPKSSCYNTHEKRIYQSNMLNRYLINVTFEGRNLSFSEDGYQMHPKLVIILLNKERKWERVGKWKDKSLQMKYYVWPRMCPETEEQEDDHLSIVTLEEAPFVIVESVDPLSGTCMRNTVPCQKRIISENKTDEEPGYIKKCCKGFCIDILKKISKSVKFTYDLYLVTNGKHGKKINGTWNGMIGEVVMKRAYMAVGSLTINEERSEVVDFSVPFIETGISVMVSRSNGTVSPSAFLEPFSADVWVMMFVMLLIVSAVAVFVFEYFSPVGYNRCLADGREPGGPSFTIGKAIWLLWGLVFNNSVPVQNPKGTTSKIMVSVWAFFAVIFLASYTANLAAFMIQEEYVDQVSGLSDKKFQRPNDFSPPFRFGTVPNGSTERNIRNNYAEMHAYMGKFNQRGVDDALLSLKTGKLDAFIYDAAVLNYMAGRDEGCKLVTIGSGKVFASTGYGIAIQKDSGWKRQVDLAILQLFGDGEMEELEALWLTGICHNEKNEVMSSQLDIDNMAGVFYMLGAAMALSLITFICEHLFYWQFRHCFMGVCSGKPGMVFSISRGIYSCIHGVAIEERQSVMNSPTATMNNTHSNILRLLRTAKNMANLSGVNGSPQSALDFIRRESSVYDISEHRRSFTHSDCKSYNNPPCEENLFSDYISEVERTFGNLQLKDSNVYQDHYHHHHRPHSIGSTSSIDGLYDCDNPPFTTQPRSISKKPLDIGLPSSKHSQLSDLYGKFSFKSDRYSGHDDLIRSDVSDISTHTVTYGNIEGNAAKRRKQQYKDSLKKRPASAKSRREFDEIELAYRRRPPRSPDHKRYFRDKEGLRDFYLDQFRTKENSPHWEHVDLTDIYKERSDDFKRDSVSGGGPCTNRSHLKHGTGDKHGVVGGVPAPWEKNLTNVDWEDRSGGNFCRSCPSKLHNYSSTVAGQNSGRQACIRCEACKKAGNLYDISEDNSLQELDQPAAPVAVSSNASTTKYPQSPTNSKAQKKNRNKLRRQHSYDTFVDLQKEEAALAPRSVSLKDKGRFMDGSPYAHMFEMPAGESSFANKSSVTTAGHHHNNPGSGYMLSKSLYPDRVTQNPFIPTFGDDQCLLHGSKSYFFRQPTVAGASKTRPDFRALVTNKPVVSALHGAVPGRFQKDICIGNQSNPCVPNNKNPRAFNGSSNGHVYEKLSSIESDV
Protocol: as §1
For determining occupancy, the membrane homogenates were first thawed on ice and then needle-homogenized using a 25 gauge needle. The homogenized membrane (6.4 mg/ml) was added to a 96-well plate followed by addition of ^3H Ro 25-6981 (6 nM). The reaction mixture was incubated for 5 minutes on a shaker at 4° C. and then harvested onto GF/B filter plates (treated with 0.5% PEI for 1 hr at room temperature). The filter plates were dried at 50° C. for 20 mins, incubated with microscint 20 for 10 minutes and read on TopCount (Perkin Elmer). Each dose or compound group consisted of 4-5 animals. The control group of animals was dosed with vehicle alone. Membrane from each animal was added in triplicates to the assay plate. Non-specific binding was determined using 10 μM Ro 25-6981 added to the wells containing membrane homogenates from vehicle-dosed animals. Specific counts/minute was converted to % occupancy at each dose of a compound for each animal using the following equation:
as §2

mice = assay: Mouse forced swim test (mFST); type: in vivo; details: 1 mg/Kg i.v., 15 min before 6 min swim session
Protocol: Forced Swim Test (FST) is an animal model used to assess antidepressant compounds in preclinical studies. The FST was performed similar to the method of Porsolt et al. with modifications (Porsolt R D, Bertin A, Jalfre M. Behavioral despair in mice: a primary screening test for antidepressants. Arch Int Pharmacodyn Thér 1977; 229:327-36). In this paradigm, mice are forced to swim in an inescapable cylinder filled with water. Under these conditions, mice will initially try to escape and eventually develop immobility behavior; this behavior is interpreted as a passive stress-coping strategy or depression-like behavior. Swim tanks were positioned inside a box made of plastic. Each tank was separated from each other by opaque plastic sheets to the height of cylinders. Three mice were subjected to test at a time. Swim sessions were conducted for 6 min by placing mice in individual glass cylinders (46 cm height×20 cm diameter) containing water (20-cm deep, maintained at 24-25° C.). […] The duration of immobility was evaluated during the total 6 min of the test and expressed as duration (sec) of immobility. […] For NCE testing: Test compound was administered in mice 15 min before swim session by i.v. route and immobility time was recorded for next 6 min. […] The NR2B receptor occupancy was determined as reported above and was determined to be 73%. […] The NR2B receptor occupancy was determined to be 79%.

[3] = target: T3, NR2B-subtype NMDA receptors (Rattus norvegicus, UniProt P35439+Q00960); assay: Radioligand binding assay (3H Ro 25-6981 competition, rat forebrain membranes); details: 3H Ro 25-6981 4 nM
T3 construct: For membrane preparation, rat forebrains were thawed on ice; from tissue; host or cells: rat forebrain membrane homogenate (Sprague Dawley, Harlan)
T3 sequence (Q00960 27-1482, other chains not shown): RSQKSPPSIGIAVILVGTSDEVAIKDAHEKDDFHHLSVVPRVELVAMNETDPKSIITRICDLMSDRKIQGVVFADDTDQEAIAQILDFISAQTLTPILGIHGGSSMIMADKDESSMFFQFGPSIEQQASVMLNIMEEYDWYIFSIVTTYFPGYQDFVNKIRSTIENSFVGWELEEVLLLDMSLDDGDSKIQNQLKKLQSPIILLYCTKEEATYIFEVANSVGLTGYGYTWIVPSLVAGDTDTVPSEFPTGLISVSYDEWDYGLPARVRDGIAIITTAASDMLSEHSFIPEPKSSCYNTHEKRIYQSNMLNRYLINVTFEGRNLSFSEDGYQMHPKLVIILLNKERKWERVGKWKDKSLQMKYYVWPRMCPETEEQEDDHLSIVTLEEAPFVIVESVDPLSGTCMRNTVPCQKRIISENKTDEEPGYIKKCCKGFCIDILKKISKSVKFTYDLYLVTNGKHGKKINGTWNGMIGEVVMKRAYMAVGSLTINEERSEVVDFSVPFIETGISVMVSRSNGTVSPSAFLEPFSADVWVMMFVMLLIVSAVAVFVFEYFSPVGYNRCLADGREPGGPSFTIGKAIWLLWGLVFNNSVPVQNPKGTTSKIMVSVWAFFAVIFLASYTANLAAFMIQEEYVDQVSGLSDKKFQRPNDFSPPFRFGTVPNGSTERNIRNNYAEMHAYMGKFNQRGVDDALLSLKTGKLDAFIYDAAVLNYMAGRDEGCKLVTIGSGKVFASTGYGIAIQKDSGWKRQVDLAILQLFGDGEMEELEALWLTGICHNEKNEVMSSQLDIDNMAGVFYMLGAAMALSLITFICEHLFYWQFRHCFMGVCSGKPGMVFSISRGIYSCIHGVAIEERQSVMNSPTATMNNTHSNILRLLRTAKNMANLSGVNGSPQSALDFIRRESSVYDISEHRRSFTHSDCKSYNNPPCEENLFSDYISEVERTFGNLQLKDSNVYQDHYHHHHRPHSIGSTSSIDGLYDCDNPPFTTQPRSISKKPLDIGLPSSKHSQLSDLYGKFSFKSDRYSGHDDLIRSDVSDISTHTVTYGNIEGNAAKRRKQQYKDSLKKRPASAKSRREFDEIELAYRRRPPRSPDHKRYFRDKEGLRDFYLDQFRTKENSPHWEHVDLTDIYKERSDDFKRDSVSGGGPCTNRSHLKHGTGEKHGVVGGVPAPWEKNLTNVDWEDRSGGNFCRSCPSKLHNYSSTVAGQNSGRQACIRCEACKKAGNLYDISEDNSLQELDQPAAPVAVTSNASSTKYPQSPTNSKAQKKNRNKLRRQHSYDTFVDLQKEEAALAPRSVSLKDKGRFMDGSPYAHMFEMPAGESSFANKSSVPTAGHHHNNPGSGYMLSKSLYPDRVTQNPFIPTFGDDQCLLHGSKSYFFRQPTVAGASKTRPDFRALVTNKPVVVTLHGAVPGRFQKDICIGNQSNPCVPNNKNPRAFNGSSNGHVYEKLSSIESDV
Protocol: For membrane preparation, rat forebrains were thawed on ice for 20 minutes in homogenization buffer composed of 50 mM KH2PO4 (pH adjusted to 7.4 with KOH), 1 mM EDTA, 0.005% Triton X 100 and protease inhibitor cocktail (Sigma Aldrich). Thawed brains were homogenized using a Dounce homogenizer and centrifuged at 48000×g for 20 min. The pellet was resuspended in cold buffer and homogenized again using a Dounce homogenizer. Subsequently, the homogenate was aliquoted, snap-frozen and stored at −80° C. for not more than 3-4 months.
To perform the competition binding assay, thawed membrane homogenate was added to each well of a 96-well plate (20 μg/well). The experimental compounds were serially diluted in 100% DMSO and added to each row of the assay plate to achieve desired compound concentrations, keeping the DMSO concentration in the assay plate at 1.33% of the final reaction volume. Next, ^3H Ro 25-6981 (4 nM) was added to the assay plate. After incubation for 1 hr at room temperature, the membrane bound radioligand was harvested on to GF/B filter plates (treated with 0.5% PEI for 1 hr at room temperature). The filter plates were dried at 50° C. for 20 mins, incubated with microscint 20 for 10 minutes and finally, the counts were read on TopCount (Perkin Elmer).

[4] = plasma, read-out: Drug levels in the plasma
[5] = brain (homogenized forebrain tissue), read-out: drug levels in the homogonized brain tissue
[6] = plasma, read-out: Drug levels in the blood plasma

T1 sequence (Q12809 whole entry): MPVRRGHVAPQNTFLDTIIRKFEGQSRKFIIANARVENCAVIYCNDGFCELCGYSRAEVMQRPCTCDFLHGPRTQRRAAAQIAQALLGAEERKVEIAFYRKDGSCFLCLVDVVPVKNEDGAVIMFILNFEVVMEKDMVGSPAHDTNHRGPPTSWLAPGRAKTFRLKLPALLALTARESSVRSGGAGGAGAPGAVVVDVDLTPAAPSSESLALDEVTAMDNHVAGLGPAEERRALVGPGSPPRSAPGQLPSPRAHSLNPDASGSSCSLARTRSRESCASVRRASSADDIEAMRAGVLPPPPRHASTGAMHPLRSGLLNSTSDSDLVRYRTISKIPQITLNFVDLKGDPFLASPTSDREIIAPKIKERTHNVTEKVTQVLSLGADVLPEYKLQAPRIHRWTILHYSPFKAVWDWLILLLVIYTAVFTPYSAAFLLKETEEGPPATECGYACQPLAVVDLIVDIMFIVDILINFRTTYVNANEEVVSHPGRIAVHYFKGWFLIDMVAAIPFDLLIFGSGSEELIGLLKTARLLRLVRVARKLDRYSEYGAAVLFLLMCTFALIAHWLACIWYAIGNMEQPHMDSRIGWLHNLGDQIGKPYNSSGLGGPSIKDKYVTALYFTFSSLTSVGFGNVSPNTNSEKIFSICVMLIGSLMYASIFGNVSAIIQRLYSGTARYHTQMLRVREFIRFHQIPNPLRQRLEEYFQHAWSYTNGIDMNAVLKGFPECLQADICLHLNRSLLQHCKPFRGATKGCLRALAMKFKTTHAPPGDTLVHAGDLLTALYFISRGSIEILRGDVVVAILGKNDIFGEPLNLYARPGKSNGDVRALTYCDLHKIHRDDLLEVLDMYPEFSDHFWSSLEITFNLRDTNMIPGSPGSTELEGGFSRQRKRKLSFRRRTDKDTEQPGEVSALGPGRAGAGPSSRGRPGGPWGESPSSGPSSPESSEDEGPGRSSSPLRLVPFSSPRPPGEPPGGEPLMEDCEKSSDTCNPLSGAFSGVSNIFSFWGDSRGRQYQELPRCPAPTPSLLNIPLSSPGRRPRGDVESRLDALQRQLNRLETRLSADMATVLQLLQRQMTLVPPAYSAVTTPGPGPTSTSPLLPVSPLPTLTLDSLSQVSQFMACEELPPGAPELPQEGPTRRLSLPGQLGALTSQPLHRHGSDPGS

concentration at 21 min ([1]; brain, read-out: Drug levels in the brain)	concentration at 21 min [1, 4]	concentration at 15 min [2, 5]	concentration at 15 min [2, 6]	receptor occupancy at 3 mg/kg (NR2B-subtype receptors)	receptor occupancy at 1 mg/kg (NR2B-subtype receptors)	Ki [3]	Structure (SMILES)	IC50 (hERG channels)	immobility time (mice)
749 nM	268 nM	1980 nM	1110 nM	95%	73%		Cc1ccc(CN2CC[C@@H](N3CC[C@@H](c4ccc(O)cc4)[C@H](F)C3)C2=O)cc1 [example 1, (R)-3-((3S,4S)-3-fluoro-4-(4-hydroxyphenyl)piperidin-1-yl)-1-(4-methylbenzyl)pyrrolidin-2-one]	28 µM	statistically significant decrease in immobility time
	360 nM	2200 nM	1800 nM	97%	79%	0.004 µM	O=C1[C@H](N2CC[C@@H](c3ccc(O)cc3)[C@H](F)C2)CCN1Cc1ccc(C(F)F)cc1 (single isomer, unassigned) [example 6]	13.5 µM	statistically significant decrease in immobility time
		900 nM	570 nM	96%		0.0014 µM	O=C1[C@H](N2CCC(c3ccc(O)cc3)CC2)CCN1Cc1ccc(F)cc1 (single isomer, unassigned) [example 8]		
